doi:10.1101/2024.05.06.592687v1 (bioRxiv, 2024)
“Also recorded” adds a separate entry of the source.

How the values were obtained:
[1] = Hexapeptide aggregative properties; assay type: physicochemical; conditions: for Aggregation properties, in words: 800 μM (16p: 288 μM)
[2] = assay type: physicochemical; conditions: 800 μM
[3] = Negative staining transmission electron microscopy of peptide structures; assay type: physicochemical; conditions: for Structure (TEM): negative staining, 1% uranyl acetate; for Diameter / Structures comments / Pitch length / Width / Diameter, Tight / Diameter, Wide: negative staining TEM
[4] = Cryo-EM of peptide sample; assay type: physicochemical; conditions: data not shown
[5] = Critical assembly concentration; assay type: physicochemical; conditions: sedimentable versus total peptide concentration
[6] = Reversibility of polymerized structures by dilution; assay type: physicochemical; conditions: polymerized at 2x Cr, diluted 8-fold to 0.25 Cr
[7] = Hexapeptide amyloidogenicity; assay type: physicochemical; conditions: 800 μM (16p: 288 μM)
[8] = Solubility of hexapeptides in water; assay type: physicochemical; conditions: deionized water

Row | Substance | Aggregation properties, in words [1] | Classification of the peptide (aggregative / amyloid / soluble), in words [2] | Structure (TEM) [3] | Structures comments [3] | other results
1 | IKQVYV [5p] | very weak | entirely soluble; also recorded: non-aggregative |  |  | 
2 | IYVQKV [9p] | no | entirely soluble; also recorded: non-aggregative | crystal structures |  | Structures seen by Cryo-EM [4]: absence of structures
3 | KQIVYV [20p] |  | aggregative | fibrillar structures; also recorded: Filament/strand bundles | Homogeneous / bundles | Diameter [3]: 13 ± 2 nm
4 | KVQIVY [10p] |  | aggregative | structures resembling ribbons; also recorded: Rather flat and tight ribbons | Heterogeneous | 
5 | KVQYVI [14p] | no | entirely soluble |  |  | 
6 | KYIQVV [2p] |  | aggregative; also recorded: strong aggregation potential | structures resembling ribbons; also recorded: Ribbons/ Filaments |  | Diameter [3]: 10 ± 2 nm
7 | KYVIQV [15p] |  | aggregative; also recorded: strong aggregation potential | structures resembling ribbons; also recorded: Twisted ribbons | Rather homogeneous | Pitch length [3]: 196 ± 34 nm; Width [3]: 21 ± 2 nm; Slope of the Cr linear regression [5]: 1.1; Reversion of structures after dilution, in words [6]: only partial
8 | QKVVYI [18p] |  | amyloid | fibrillar structures | Heterogeneous | Diameter, Tight [3]: 9 nm; Diameter, Wide [3]: 18 nm; Pitch length [3]: 107 ± 14 nm; Width [3]: 29 ± 7 nm; Structure (TEM) ([3]; listed as 18p*): Twisted ribbons/fibers; Slope of the Cr linear regression [5]: 0.84; Reversion of structures after dilution, in words [6]: almost total reversion
9 | QKVYIV [19p] |  | aggregative | fibrillar structures; also recorded: Tangle ribbons | Few twists and bundles | Width [3]: 11± 3 nm
10 | QKYIVV [8p] | no | entirely soluble |  |  | 
11 | QVIKYV [23p] | very weak | entirely soluble; also recorded: non-aggregative |  |  | 
12 | VKVIYQ [7p] |  | aggregative; also recorded: strong aggregation potential | fibrillar structures; also recorded: Twisted fibers | Homogeneous perpendicular breaks | Amyloidogenicity by Thioflavin T fluorescence, in words [7]: without fluorescence; Diameter [3]: 17 ± 4 nm; Pitch length [3]: 138 ± 12 nm
13 | VKVYIQ [11p] |  | amyloid; also recorded: amyloidogenic character | fibrillar structures |  | Diameter [3]: 5 ± 1 nm; Structure (TEM) ([3]; listed as 11p*): Stringy filaments/fibers; Slope of the Cr linear regression [5]: 0.74; Reversion of structures after dilution, in words [6]: almost total reversion
14 | VKYQVI [3p] | very weak | entirely soluble; also recorded: non-aggregative |  |  | 
15 | VQIVYK [ß1, reference compound] |  |  | fibrillar structures | Rather homogeneous | Diameter [3]: 9 ± 2 nm; Pitch length [3]: 105 ± 20 nm; Diameter ([3]; listed as β1): ~10 nm; Pitch length ([3]; listed as β1): ~100 nm; Structure (TEM) ([3]; listed as ß1*): Double/Twisted fibers
16 | VQKIYV [4p] | no | entirely soluble; also recorded: non-aggregative |  |  | 
17 | VQVIYK [12p] |  | amyloid | fibrillar structures | Twisting of at least four filaments | Diameter, Tight [3]: 7 nm; Diameter, Wide [3]: 15 nm; Pitch length [3]: 177 ± 26 nm; Structure (TEM) ([3]; listed as 12p*): Twisted Stringy filaments/fibers; Reversion of structures after dilution, in words [6]: almost total reversion
18 | VQVKYI [21p] |  | amyloid; also recorded: amyloidogenic character | globular/ovoid structures | Variable size / aggregates | Diameter [3]: 25 ± 6 nm; Structure (TEM) ([3]; listed as 21p*): Globular/ovoid; Reversion of structures after dilution, in words [6]: almost total reversion
19 | VQVYKI [22p] |  | aggregative; also recorded: soluble | fibrillar structures; also recorded: Twisted ribbons bundles/fibers | Highly heterogeneous | 
20 | VVQKYI [6p] | very weak | entirely soluble; also recorded: non-aggregative |  |  | 
21 | YIVVQK [13p] | no | entirely soluble |  |  | 
22 | YQVIVK [17p] |  | aggregative | structures resembling ribbons | Flat/short tangled, heterogeneous | Amyloidogenicity by Thioflavin T fluorescence, in words [7]: without fluorescence; Width [3]: 14 ± 2 nm
23 | YQVKIV [16p] | strong aggregation | strong aggregation potential | structures resembling ribbons; also recorded: Rather ribbons | Very homogeneous, perpendicular breaks | Amyloidogenicity by Thioflavin T fluorescence, in words [7]: not amyloidogenic; Solubility in water, in words [8]: poor solubility in water; Solubility in water, in words ([8]; listed as 16p*): low solubility in water; Aggregation Threshold ([1]; 16p studied at ~290 μM (288 μM) due to poor solubility in water): 17 µM; Pitch length [3]: 44 ± 4 nm; Width [3]: 22±3 nm
